Measured values as given in patent US9556201B2, “Bicyclic pyridines and analogs as sirtuin modulators” (GLAXOSMITHKLINE LLC, priority 2009, dated 2017).

Key:
[1] = target: T1, SIRT1 (Homo sapiens, UniProt Q96EB6); assay: Mass spectrometry based assay to identify modulators of SIRT1 activity (deacetylation of p53-based acetylated peptide substrate); format: biochemical; conditions: SIRT1 activation; for Emax: 25 min, read-out: % FOLD ACT. (percent maximum fold activation)
T1 sequence (Q96EB6 1-747): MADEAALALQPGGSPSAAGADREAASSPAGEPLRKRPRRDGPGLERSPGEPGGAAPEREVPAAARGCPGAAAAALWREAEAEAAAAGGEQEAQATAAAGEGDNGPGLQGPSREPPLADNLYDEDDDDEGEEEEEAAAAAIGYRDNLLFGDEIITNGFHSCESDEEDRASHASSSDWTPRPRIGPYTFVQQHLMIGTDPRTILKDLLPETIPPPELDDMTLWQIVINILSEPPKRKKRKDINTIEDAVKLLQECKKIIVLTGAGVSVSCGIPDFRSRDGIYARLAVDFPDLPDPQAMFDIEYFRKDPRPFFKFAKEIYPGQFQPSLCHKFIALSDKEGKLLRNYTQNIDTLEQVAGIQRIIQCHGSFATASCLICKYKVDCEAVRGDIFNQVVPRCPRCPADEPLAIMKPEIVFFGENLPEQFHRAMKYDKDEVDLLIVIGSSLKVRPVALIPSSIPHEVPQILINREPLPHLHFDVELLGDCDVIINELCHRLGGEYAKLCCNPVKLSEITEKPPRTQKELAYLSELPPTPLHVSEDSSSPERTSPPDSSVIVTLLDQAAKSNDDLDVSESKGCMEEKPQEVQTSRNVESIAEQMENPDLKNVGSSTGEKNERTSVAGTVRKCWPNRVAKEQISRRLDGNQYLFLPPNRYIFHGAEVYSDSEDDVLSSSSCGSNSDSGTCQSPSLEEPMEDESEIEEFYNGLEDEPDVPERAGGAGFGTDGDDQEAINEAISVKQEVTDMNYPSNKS
Procedure, shortened: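 Deacetylation of a modified p53 acetyl-lysine peptide ([…], 5TMR-labelled, Nle for Met) by 10 nM N-His SIRT1 with 120 μM βNAD+, pH 8, 25 min, 25 °C. Substrate and product masses measured by MS after formic acid quench; nicotinamide defines maximal inhibition.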

[2] = test system: TNF; assay: TNF IC50 (column of Table 1; method not shown); format: cell-based

| SMILES | Emax [1] | EC1.5 [1] | IC50 [2] |
| --- | --- | --- | --- |
| O=C(Nc1ccc(F)cn1)N1CCOc2ccc(-c3cccc(C(F)(F)F)c3)nc21 [Compound 566] | > 200% | A (EC1.5<1.0 μM) | ≥ 20 µM |
| Cc1cc(NC(=O)N2CC(C)(C)Oc3ccc(-c4cccc(N5CC[C@H](F)C5)c4)nc32)cc(C)n1 [Compound 658] | > 200% | A (EC1.5<1.0 μM) | ≥ 20 µM |
| O=C(Nc1cccc(OC[C@H](O)CO)n1)N1CCCc2ccc(-c3cccc(C(F)(F)F)c3)nc21 [Compound 678] | > 200% | A (EC1.5<1.0 μM) | ≥ 20 µM |
| O=C(Nc1cncc(F)c1)N1CCCc2ccc(-c3cccc(F)c3)nc21 [Compound 594] | – | A (EC1.5<1.0 μM) | ≥ 20 µM |
| Cc1cc(NC(=O)N2CCCOc3ccc(-c4cccc(Cl)c4)nc32)ccn1 [Compound 613] | > 200% | A (EC1.5<1.0 μM) | < 20 µM |
| O=C(Nc1ccnc(N2CCC2)c1)N1CCCc2ccc(-c3cccc(C(F)(F)F)c3)nc21 [Compound 589] | > 200% | A (EC1.5<1.0 μM) | < 20 µM |
| Cc1csc(NC(=O)N2CCCc3ccc(-c4cccc(C(F)(F)F)c4)nc32)n1 [Compound 588] | > 200% | A (EC1.5<1.0 μM) | ≥ 20 µM |
| CN1CCN(C(=O)Nc2cccc(CN3CCOCC3)n2)c2nc(-c3cccc(C(F)(F)F)c3)ccc21 [Compound 539] | > 200% | A (EC1.5<1.0 μM) | < 20 µM |
| O=C(Nc1cncc(OCC(O)CO)n1)N1CCOc2ccc(-c3cccc(C(F)(F)F)c3)nc21 (centres unmarked) [Compound 696, N-(6-(2,3-dihydroxypropoxy)pyrazin-2-yl)-6-(3-(trifluoromethyl)phenyl)-2H-pyrido[3,2-b][1,4]oxazine-4(3H)-carboxamide] | > 200% | A (EC1.5<1.0 μM) | < 20 µM |
| CC1(C)CN(C(=O)Nc2cncc(F)c2)c2nc(-c3cccc(N4CC[C@H](F)C4)c3)ccc2O1 [Compound 661] | > 200% | A (EC1.5<1.0 μM) | ≥ 20 µM |
| Cc1cc(NC(=O)N2CCCc3ccc(-c4cccc(F)c4)nc32)cc(C)n1 [Compound 595] | > 200% | A (EC1.5<1.0 μM) | < 20 µM |
| Cc1cc(NC(=O)N2CCCOc3ccc(-c4cccc(Cl)c4)nc32)cc(C)n1 [Compound 626] | > 200% | A (EC1.5<1.0 μM) | < 20 µM |
| Cc1cc(NC(=O)N2CCOc3ccc(-c4cccc(N(C)C)c4)nc32)cc(C)n1 [Compound 619] | > 200% | A (EC1.5<1.0 μM) | < 20 µM |
| Cc1cc(NC(=O)N2CC(C)(C)Oc3ccc(-c4cccc(N5CCOCC5)c4)nc32)cc(C)n1 [Compound 659] | > 200% | A (EC1.5<1.0 μM) | < 20 µM |
| Cc1cc(NC(=O)N2CCOc3ccc(-c4ccc5c(c4)CCO5)nc32)cc(C)n1 [Compound 574] | > 200% | A (EC1.5<1.0 μM) | ≥ 20 µM |
| Cc1csc(NC(=O)N2CCCc3ccc(-c4cccc(F)c4)nc32)n1 [Compound 620] | > 200% | A (EC1.5<1.0 μM) | < 20 µM |
| O=C(Nc1cccc(OC[C@@H](O)CO)n1)N1CCOc2ccc(-c3cccc(C(F)(F)F)c3)nc21 [Compound 571] | > 200% | A (EC1.5<1.0 μM) | < 20 µM |
| O=C(Nc1ccncc1)N1CCCc2ccc(-c3cccc(C(F)(F)F)c3)nc21 [Compound 645] | > 200% | A (EC1.5<1.0 μM) | < 20 µM |
| CN1CCN(C(=O)Nc2ccnc(N3CCC3)c2)c2nc(-c3cccc(C(F)(F)F)c3)ccc21 [Compound 538] | > 200% | A (EC1.5<1.0 μM) | < 20 µM |
| Cc1csc(NC(=O)N2CCCc3ccc(-c4cccc(Cl)c4)nc32)n1 [Compound 616] | > 200% | A (EC1.5<1.0 μM) | ≥ 20 µM |
| Cc1cncc(NC(=O)N2CCOc3ccc(-c4cccc(C(F)(F)F)c4)nc32)c1 [Compound 551] | > 200% | A (EC1.5<1.0 μM) | ≥ 20 µM |

| SMILES | Emax [1] | EC1.5 [1] | IC50 [2] |
| --- | --- | --- | --- |
| Cc1cncc(NC(=O)N2CC(C)(C)Oc3ccc(-c4cccc(N5CCCC5)c4)nc32)c1 [Compound 603] | > 200% | A (EC1.5<1.0 μM) | ≥ 20 µM |
| O=C(Nc1cccnc1)N1CCCc2ccc(-c3cccc(Cl)c3)nc21 [Compound 653] | > 200% | A (EC1.5<1.0 μM) | ≥ 20 µM |
| Cc1cc(C)nc(NC(=O)N2CCCc3ccc(-c4cccc(C(F)(F)F)c4)nc32)c1 [Compound 647] | > 200% | A (EC1.5<1.0 μM) | ≥ 20 µM |
| Cc1cc(-c2cccc(C(F)(F)F)c2)nc2c1OCCN2C(=O)Nc1cccc(OCC(O)CO)n1 (centres unmarked) [Compound 682] | > 200% | A (EC1.5<1.0 μM) | < 20 µM |
| Cc1csc(NC(=O)N2CC(C)(C)Oc3ccc(-c4cccc(N5CCCC5)c4)nc32)n1 [Compound 606] | ≤ 200% | A (EC1.5<1.0 μM) | ≥ 20 µM |
| Cc1cncc(NC(=O)N2CCCc3ccc(-c4cccc(C(F)(F)F)c4)nc32)c1 [Compound 585, N-(5-methylpyridin-3-yl)-7-(3-(trifluoromethyl)phenyl)-3,4-dihydro-1,8-naphthyridine-1(2H)-carboxamide] | > 200% | A (EC1.5<1.0 μM) | < 20 µM |
| CC1(C)CN(C(=O)Nc2cncc(F)c2)c2nc(-c3cccc(N4CCCC4)c3)ccc2O1 [Compound 604] | > 200% | A (EC1.5<1.0 μM) | ≥ 20 µM |
| Cc1cc(NC(=O)N2CCOc3ccc(-c4cccc(C#N)c4)nc32)cc(C)n1 [Compound 631] | > 200% | A (EC1.5<1.0 μM) | ≥ 20 µM |
| O=C(Nc1ccncc1)N1CCOc2ccc(-c3cccc(N4CCOCC4)c3)nc21 [Compound 557] | > 200% | A (EC1.5<1.0 μM) | ≥ 20 µM |
| O=C(Nc1cncc(OCC(O)CO)n1)N1CCCc2ccc(-c3cccc(C(F)(F)F)c3)nc21 (centres unmarked) [Compound 638] | > 200% | A (EC1.5<1.0 μM) | < 20 µM |
| Cc1cc(C)nc(NC(=O)N2CCOc3ccc(-c4cccc(C(F)(F)F)c4)nc32)c1 [Compound 511] | > 200% | A (EC1.5<1.0 μM) | ≥ 20 µM |
| Cc1cncc(NC(=O)N2CCOc3ccc(-c4cccc(N5CCCC5)c4)nc32)c1 [Compound 644] | > 200% | A (EC1.5<1.0 μM) | < 20 µM |
| Cc1cncc(NC(=O)N2CC(C)(C)Oc3ccc(-c4cccc(N5CC[C@H](F)C5)c4)nc32)c1 [Compound 660, (S)-6-(3-(3-fluoropyrrolidin-1-yl)phenyl)-2,2-dimethyl-N-(5-methylpyridin-3-yl)-2H-pyrido[3,2-b][1,4]oxazine-4(3H)-carboxamide] | > 200% | A (EC1.5<1.0 μM) | ≥ 20 µM |
| Cc1cncc(NC(=O)N2CCCOc3ccc(-c4cccc(Cl)c4)nc32)c1 [Compound 598] | > 200% | A (EC1.5<1.0 μM) | < 20 µM |
| Cc1cc(NC(=O)N2CCOc3ccc(-c4cccc(N5CCCC5)c4)nc32)cc(C)n1 [Compound 618] | > 200% | A (EC1.5<1.0 μM) | ≥ 20 µM |
| O=C(Nc1cccc(OC[C@H](O)CO)n1)N1CCOc2ccc(-c3cccc(C(F)(F)F)c3)nc21 [Compound 570, (R)—N-(6-(2,3-dihydroxypropoxy)pyridin-2-yl)-6-(3-(trifluoromethyl)phenyl)-2H-pyrido[3,2-b][1,4]oxazine-4(3H)-carboxamide] | > 200% | A (EC1.5<1.0 μM) | < 20 µM |
| O=C(Nc1ccncn1)N1CCOc2ccc(-c3cccc(C(F)(F)F)c3)nc21 [Compound 503] | > 200% | A (EC1.5<1.0 μM) | ≥ 20 µM |
| O=C(Nc1ccnc(N2CCC2)c1)N1CCCc2ccc(-c3cccc(F)c3)nc21 [Compound 596] | > 200% | A (EC1.5<1.0 μM) | < 20 µM |
| Cc1cncc(NC(=O)N2CC(C)(C)Oc3ccc(-c4cccc(N(C)C)c4)nc32)c1 [Compound 593] | > 200% | A (EC1.5<1.0 μM) | ≥ 20 µM |
| Cc1cncc(NC(=O)N2CCCc3ccc(-c4cccc(F)c4)nc32)c1 [Compound 590] | > 200% | A (EC1.5<1.0 μM) | < 20 µM |
| Cc1cc(NC(=O)N2CCCOc3ccc(-c4cccc(N5CCCC5)c4)nc32)cc(C)n1 [Compound 615] | > 200% | A (EC1.5<1.0 μM) | < 20 µM |
